Experimental data as given in US12503438B2, “Compounds for the treatment of kinase-dependent disorders” (Exelixis, Inc., priority 2019, dated 2025).

Assays:
Met = Met (Homo sapiens, UniProt P08581); assay: Met autophosphorylation ELISA in PC-3 cells; type: cell-based; design: endogenous in cells; host or cells: PC-3 prostate cancer cells (ATCC #CRL-1435); conditions: cellular activity, HGF-stimulated, phospho-Met ELISA, read-out: c-Met IC50
Procedure, shortened: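 PC-3 cells serum-starved 3 h, treated 1 h with 8-point compound series (0.3% DMSO), then stimulated with 100 ng/mL human HGF for 10 min. Lysate phospho-Met (panTyr) measured by sandwich ELISA; IC50 from 4-parameter logistic fit against DMSO and reference-inhibitor controls.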

Mer = biological target: T1, Mer (Homo sapiens, UniProt Q12866); assay: Mer autophosphorylation ELISA in transient transfected 293A cells; type: cell-based; conditions: cellular activity; MERTK-transfected 293A cells, phospho-Mer ELISA
T1 construct: host or cells: 293A cells (Thermo Fisher #R70507)
T1 sequence (Q12866 21-999): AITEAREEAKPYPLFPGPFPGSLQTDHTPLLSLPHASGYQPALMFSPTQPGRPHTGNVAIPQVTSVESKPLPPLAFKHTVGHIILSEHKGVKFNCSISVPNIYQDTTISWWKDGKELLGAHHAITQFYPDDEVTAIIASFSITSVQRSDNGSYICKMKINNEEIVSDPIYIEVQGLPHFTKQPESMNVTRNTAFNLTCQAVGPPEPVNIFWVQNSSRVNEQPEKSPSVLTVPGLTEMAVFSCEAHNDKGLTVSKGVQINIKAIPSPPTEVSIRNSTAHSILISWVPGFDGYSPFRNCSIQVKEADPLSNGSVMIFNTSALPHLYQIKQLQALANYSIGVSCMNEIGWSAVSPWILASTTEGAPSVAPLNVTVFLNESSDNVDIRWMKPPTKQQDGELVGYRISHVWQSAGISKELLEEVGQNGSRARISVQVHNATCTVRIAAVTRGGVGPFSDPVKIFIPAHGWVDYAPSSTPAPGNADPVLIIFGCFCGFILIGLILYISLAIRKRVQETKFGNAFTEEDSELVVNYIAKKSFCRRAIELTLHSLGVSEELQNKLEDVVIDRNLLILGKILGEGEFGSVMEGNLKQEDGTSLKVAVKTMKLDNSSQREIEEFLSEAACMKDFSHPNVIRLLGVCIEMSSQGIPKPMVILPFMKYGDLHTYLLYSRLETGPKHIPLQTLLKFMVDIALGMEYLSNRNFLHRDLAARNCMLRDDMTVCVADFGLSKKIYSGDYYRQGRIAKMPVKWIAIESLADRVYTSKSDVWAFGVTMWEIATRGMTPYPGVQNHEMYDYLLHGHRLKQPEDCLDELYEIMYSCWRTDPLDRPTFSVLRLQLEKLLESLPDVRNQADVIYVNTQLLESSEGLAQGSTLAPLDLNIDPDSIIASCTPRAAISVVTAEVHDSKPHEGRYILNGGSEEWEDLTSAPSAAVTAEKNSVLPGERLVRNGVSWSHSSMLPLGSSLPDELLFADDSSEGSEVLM
Procedure, shortened: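 293A cells transiently transfected with human MERTK DNA, then treated 1 h with 8-point compound dilutions in serum-free medium (0.3% DMSO). Phospho-Mer in lysates quantified by sandwich ELISA against phospho-Mer standard; normalised to DMSO (100%) and reference inhibitor (0%), IC50 from 4-parameter logistic fit.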

Sequence of Met (P08581 25-1390): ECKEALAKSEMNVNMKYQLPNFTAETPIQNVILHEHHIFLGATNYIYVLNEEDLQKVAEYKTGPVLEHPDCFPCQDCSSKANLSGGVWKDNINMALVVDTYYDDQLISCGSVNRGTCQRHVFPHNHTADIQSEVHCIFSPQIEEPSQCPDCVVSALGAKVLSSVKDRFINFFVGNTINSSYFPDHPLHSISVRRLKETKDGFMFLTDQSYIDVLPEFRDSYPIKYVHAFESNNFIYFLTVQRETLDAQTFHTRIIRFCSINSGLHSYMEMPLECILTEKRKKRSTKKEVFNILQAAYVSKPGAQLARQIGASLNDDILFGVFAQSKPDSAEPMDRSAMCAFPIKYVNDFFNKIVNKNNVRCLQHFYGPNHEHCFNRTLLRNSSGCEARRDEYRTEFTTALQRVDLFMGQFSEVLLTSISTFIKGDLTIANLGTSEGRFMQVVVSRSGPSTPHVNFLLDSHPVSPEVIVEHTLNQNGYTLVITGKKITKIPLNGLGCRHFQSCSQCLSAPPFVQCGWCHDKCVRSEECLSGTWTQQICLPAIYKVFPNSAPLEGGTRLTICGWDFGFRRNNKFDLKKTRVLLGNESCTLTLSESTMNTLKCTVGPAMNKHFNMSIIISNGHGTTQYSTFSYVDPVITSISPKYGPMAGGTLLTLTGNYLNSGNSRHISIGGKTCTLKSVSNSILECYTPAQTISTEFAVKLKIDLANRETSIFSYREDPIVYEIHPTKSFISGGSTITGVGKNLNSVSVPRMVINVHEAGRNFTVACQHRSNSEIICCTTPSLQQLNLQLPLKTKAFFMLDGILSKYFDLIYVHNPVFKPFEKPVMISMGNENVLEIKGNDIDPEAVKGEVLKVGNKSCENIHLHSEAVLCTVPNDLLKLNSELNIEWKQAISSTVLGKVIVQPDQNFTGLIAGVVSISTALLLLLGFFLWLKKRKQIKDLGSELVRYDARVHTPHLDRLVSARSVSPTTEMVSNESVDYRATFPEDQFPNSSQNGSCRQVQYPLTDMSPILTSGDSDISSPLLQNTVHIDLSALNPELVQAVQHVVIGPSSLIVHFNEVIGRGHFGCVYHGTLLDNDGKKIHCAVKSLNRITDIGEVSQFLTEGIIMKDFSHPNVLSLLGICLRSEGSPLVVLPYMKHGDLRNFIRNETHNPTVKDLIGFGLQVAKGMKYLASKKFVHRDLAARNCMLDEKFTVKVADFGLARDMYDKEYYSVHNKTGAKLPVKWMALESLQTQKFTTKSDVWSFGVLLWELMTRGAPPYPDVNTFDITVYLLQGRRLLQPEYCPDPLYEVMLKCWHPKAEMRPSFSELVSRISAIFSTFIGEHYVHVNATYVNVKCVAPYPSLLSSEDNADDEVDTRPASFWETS

IC50 (Met) [nM]	IC50 (Mer) [nM]	Structure (SMILES)
10 to 100	100 to 300	O=C(Nc1ccc(F)cc1)C1(C(=O)Nc2ccc(Oc3ccnc4cc(-c5cnn(C(F)(F)F)c5)ccc34)cc2)CC1 [Compound 12, 1-N′-(4-Fluorophenyl)-1-N-[4-[7-[1-(trifluoromethyl)pyrazol-4-yl]quinolin-4-yl]oxyphenyl]cyclopropane-1,1-dicarboxamide]
10 to 100	10 to 100	O=C(Nc1ccc(F)cc1)C1(C(=O)Nc2ccc(Oc3ccnc4cc(-c5cc6n(n5)CCC6)ccc34)cc2)CC1 [Compound 124, 1-N-[4-[7-(5,6-Dihydro-4H-pyrrolo[1,2-b]pyrazol-2-yl)quinolin-4-yl]oxyphenyl]-1-N′-(4-fluorophenyl)cyclopropane-1,1-dicarboxamide]
10 to 100	≤ 10	COCCn1cc(-c2ccc3c(Oc4ccc(NC(=O)C5(C(=O)Nc6ccc(F)cc6)CC5)cc4)ccnc3c2)cn1 [Compound 10, 1-N′-(4-Fluorophenyl)-1-N-[4-[7-[1-(2-methoxyethyl)pyrazol-4-yl]quinolin-4-yl]oxyphenyl]cyclopropane-1,1-dicarboxamide]
≤ 10	10 to 100	O=C(Nc1ccc(F)cc1)C1(C(=O)Nc2ccc(Oc3ccnc4cc(-c5ccc(O)nc5)ccc34)cc2)CC1 [Compound 51, 1-N′-(4-Fluorophenyl)-1-N-[4-[7-(6-hydroxypyridin-3-yl)quinolin-4-yl]oxyphenyl]cyclopropane-1,1-dicarboxamide]
100 to 300	100 to 300	Cc1cncc(-c2ccc3c(Oc4ccc(NC(=O)C5(C(=O)Nc6ccc(F)cc6)CC5)cc4)ccnc3c2)c1 [Compound 46, 1-N′-(4-Fluorophenyl)-1-N-[4-[7-(5-methylpyridin-3-yl)quinolin-4-yl]oxyphenyl]cyclopropane-1,1-dicarboxamide]
≤ 10	10 to 100	O=C(Nc1ccc(F)cc1)C1(C(=O)Nc2ccc(Oc3ccnc4cc(-c5ccnnc5)ccc34)cc2)CC1 [Compound 28, 1-N′-(4-Fluorophenyl)-1-N-[4-(7-pyridazin-4-ylquinolin-4-yl)oxyphenyl]cyclopropane-1,1-dicarboxamide]
10 to 100	10 to 100	O=C(Nc1ccc(F)cc1)C1(C(=O)Nc2ccc(Oc3ccnc4cc(-c5ncco5)ccc34)cc2)CC1 [Compound 66, 1-N′-(4-Fluorophenyl)-1-N-[4-[7-(1,3-oxazol-2-yl)quinolin-4-yl]oxyphenyl]cyclopropane-1,1-dicarboxamide]
10 to 100	≤ 10	O=C(Nc1ccc(F)cc1)C1(C(=O)Nc2ccc(Oc3ccnc4cc(-c5cnn(CC(F)F)c5)ccc34)cc2)CC1 [Compound 15, 1-N-[4-[7-[1-(2,2-Difluoroethyl)pyrazol-4-yl]quinolin-4-yl]oxyphenyl]-1-N′-(4-fluorophenyl)cyclopropane-1,1-dicarboxamide]
10 to 100	10 to 100	Cc1cc2c(Oc3c(F)cc(NC(=O)C4(C(=O)Nc5ccc(F)cc5)CC4)c(F)c3F)ccnc2cc1-c1cnn(C)c1 [Compound 110, 1-N-(4-Fluorophenyl)-1-N′-[2,3,5-trifluoro-4-[6-methyl-7-(1-methylpyrazol-4-yl)quinolin-4-yl]oxyphenyl]cyclopropane-1,1-dicarboxamide]
10 to 100	10 to 100	O=C(Nc1ccc(F)cc1)C1(C(=O)Nc2ccc(Oc3ccnc4cc(-c5ccn(C(F)F)n5)ccc34)cc2)CC1 [Compound 84, 1-N-[4-[7-[1-(Difluoromethyl)pyrazol-3-yl]quinolin-4-yl]oxyphenyl]-1-N′-(4-fluorophenyl)cyclopropane-1,1-dicarboxamide]
